Data set [1] deals with CBP/P300. Put plainly: Streptavidin affinity purification of CBP/P300 from MV-411 cell extracts with BIO-MYBMIM, with peptide competition. In kind it is binding, human. The conditions noted are these: 20-fold molar excess free peptide, MV-411 extracts, western blot. On the procedure: Cells were lysed in RIPA buffer (Thermo Fisher) supplemented with a protease inhibitor mix comprised of AEBSF (0.5 mM concentration, Santa Cruz, SC-202041B), Bestatin (0.01 mM, Fisher/Alfa Aesar, J61106-MD), Leupeptin (0.1 mM, Santa Cruz, SC-295358B), and Pepstatin (0.001 mM, Santa Cruz, SC-45036A). Lysates were mechanically disrupted using Covaris S220 adaptive focused sonicator, according to the manufacturer’s instructions (Covaris, Woburn, CA). Lysates were cleared by centrifugation for 15 min at 18,000 × g and clarified lysates were quantified using the bicinchoninic acid assay (Pierce). Clarified lysates (20 μg of protein) were resolved using sodium dodecyl sulfate-polyacrylamide gel electrophoresis, and electroeluted using the Immobilon FL PVDF membranes (Millipore, Billerica, MA, USA). Membranes were blocked using the Odyssey Blocking buffer (Li-Cor, Lincoln, Nebraska, USA). The following primary antibodies were used as indicated: anti-MYB (1:1000, 05-175, Millipore), anti-CBP (1:1000, PA1-847, Invitrogen), anti-BCL2 (1:1000, 200-401-222, Rockland), anti-β actin (1:1000, 8H10D10, Cell Signaling). […] Blotted membranes were visualized using secondary antibodies conjugated to IRDye 800CW or IRDye 680RD (Goat anti-rabbit, 1:15,000, and goat anti-mouse, 1:15,000) and the Odyssey CLx fluorescence scanner, according to manufacturer’s instructions (Li-Cor, Lincoln, Nebraska, USA). […]
For orientation: In western blotting, separated proteins are transferred to a membrane and probed.

The test system of data set [2] is MOLM-13, MV-411, ML-2 and HL-60 cells. Put plainly: Cell viability of AML cell lines. In kind it is cell-based, human. Conditions: 6 days, 20 μM TG1, TG2 or TG3, 10 and 20 μM MYBMIM, peptide replacement every 48 h, compared to untreated control. On the procedure:
(§1) Cells were resuspended and plated at a concentration of 2 × 10^5 cells in 200 μl in 96-well tissue culture plates. Media with peptides was replaced every 48 h. To assess the number of viable cells, cells were resuspended in PBS and 10 µl of suspension was mixed in a 1:1 ratio with 0.4% Trypan Blue (Thermo Fisher) and counted using a hemacytometer (Hausser Scientific, Horsham, PA, USA). To assess viability using an ATP-based assay, cell viability was assessed using the CellTiter-Glo Luminescent Viability assay, according to the manufacturer’s instructions (Promega). Luminescence was recorded using the Infinite M1000Pro plate reader using integration time of 250 ms (Tecan).

Data set [3] relates to MV-411 cells. Put plainly: Growth and survival of MV-411 cells with ectopic BCL2 (MIG-BCL2) or empty MIG vector. The conditions noted are these: 20 μM. The class given is cell-based, human. On the procedure: as §1
The MIG-BCL2 vector was packaged using pUMVc and pCMV-VSVG vectors in HEK 293T cells and the FuGENE 6 transfection reagent, according to manufacturer’s instructions (Promega). Virus supernatant was collected at 48 and 72 h post transfection, pooled, filtered and stored at −80 °C. Cells were transduced with virus particles at a multiplicity of infection of 1 by spin inoculation for 90 min at 3500 rpm at 35 °C in the presence of 8 μg/ml hexadimethrine bromide. Two days after transduction, cells were isolated using fluorescence-activated cell sorting (FACSAria III, BD Bioscience, San Jose, CA, USA).

The test system of data set [4] is C57BL/6J mice. Put plainly: Peripheral blood counts after 7 days of treatment. In kind it is in vivo, mouse. The conditions noted are these: 25 mg/kg IP daily. How it is done: (§2) All mouse experiments were carried out in accordance with the Memorial Sloan Kettering Institutional Animal Care and Use Committee. For toxicity studies, female C57BL/6J mice (The Jackson Laboratory, Bar Harbor, Maine, USA) were treated with MYBMIM peptide suspended in PBS and administered daily through intraperitoneal injection at a dose of 25 mg/kg for a total of 7 days. Mice were sacrificed at the end of treatment for hematologic, biochemical and histologic analyses. For pharmacokinetic studies, C57BL/6J mice (The Jackson Laboratory, Bar Harbor, Maine, USA) were treated with a single IP injection of 25 mg/kg BIO-MYBMIM, and blood plasma was collected 30 min, 2 h, 4 h, and 24 h post-injection. Quantification of BIO-MYBMIM was measured using the Quant-Tag Biotin kit (Vector Labs, cat. # BDK-2000) following the manufacturer instructions. For patient-derived xenografts, two hundred thousand primary AML MLL-rearranged leukemia cells were suspended in […] of PBS and transplanted via tail vein injection into 8-week-old sublethally irradiated (200 rad) female NOD.Cg-Prkdc(scid)Il2rg(tm1Wjl)/SzJ mice (The Jackson Laboratory, Bar Harbor, Maine, USA). […] Mice were treated from days 3–17 of this study for a total of 14 days and then monitored daily with clinical examination for survival analysis.

Data set [5] concerns primary patient-derived MLL-rearranged leukemia cells in NSG mice. Put plainly: Patient-derived MLL-rearranged leukemia xenograft, treatment 3 days post transplantation, survival. In kind it is in vivo, mouse. How it is done:
as §2
In general terms: A xenograft is tissue or cells of one species grown in another, often human tumour cells in immunodeficient mice.

Non-standard residues stand in square brackets, D forms with d. Residues, ends and D or L forms follow the SMILES beside them.

Data on 1 compound can be found in PMC5760651, “Peptidomimetic blockade of MYB in acute myeloid leukemia” (Nature Communications, 2018).

In the case of `CC[C@@H](C)[C@@H](NC(=O)[C@@H](CCCCN)NC(=O)[C@@H](CCC(=O)O)NC(=O)[C@@H](CC(C)C)NC(=O)[C@@H](CCC(=O)O)NC(=O)[C@@H](CC(C)C)NC(=O)[C@@H](CC(C)C)NC(=O)[C@@H](CC(C)C)NC(=O)[C@@H](CCSC)NC(=O)[C@@H](CO)NC(=O)[C@H](NC(=O)[C@@H](CCC(=O)O)NC(=O)[C@@H](CC(N)=O)NC(=O)[C@@H](CCC(=O)O)NC(=O)[C@@H](CC(C)C)NC(=O)[C@@H](CCCCN)NC(C)=O)[C@H](C)O)C(=O)N[C@H](CCCNC(=N)N)C(=O)N[C@H](CCCCN)C(=O)NCC(=O)NCC(=O)N[C@H](CCCNC(=N)N)C(=O)N[C@H](CCCNC(=N)N)C(=O)N[C@H](CCCNC(=N)N)C(=O)N[C@H](CCC(N)=O)C(=O)N[C@H](CCCNC(=N)N)C(=O)N[C@H](CCCNC(=N)N)C(=O)N[C@H](CCCCN)C(=O)N[C@H](CCCCN)C(=O)N[C@H](CCCNC(=N)N)C(=O)NCC(=O)N[C@H](Cc1ccc(O)cc1)C(N)=O` [MYBMIM] (Ac-[dK][dL][dE][dN][dE][dT][dS][dM][dL][dL][dL][dE][dL][dE][dK][dI][dR][dK]GG[dR][dR][dR][dQ][dR][dR][dK][dK][dR]G[dY]-NH2), in data set [1], the “Displacement of cellular CBP/P300 from BIO-MYBMIM beads by free peptide” value is given as “displacement of cellular CBP/P300”. The “Growth of AML cell lines” value in data set [2] is recorded as “sustained, logarithmic reduction of growth”. Also, the “Cell growth and survival of mock-treated and MIG empty vector control transduced MV-411 cells” value in data set [3] (p = 0.003) was “significant reduction of cell growth and survival”. The “MYBMIM-induced apoptosis in cells ectopically overexpressing BCL2” value in data set [3] (MV-411 MIG-BCL2 cells) is reported as “largely, though not completely, rescued”. For the same compound, the “Peripheral blood counts (total leukocytes, lymphocytes, platelets, blood hemoglobin)” value in data set [4] is on record as “no significant changes”. The “Leukemia progression and survival” value in data set [5] (NSG mice, 25 mg/kg IP twice daily, 14 days from 3 days post-transplantation, n = 15 per group, p = 3.8e-3 log-rank) was “significantly delayed leukemia progression and extended survival”. Besides, the “Disease latency in secondary transplant recipients” value in data set [5] (leukemia cells from moribund MYBMIM-treated mice vs vehicle, n = 10 per group, p < 0.0001 log-rank) is “significantly delayed disease latency”.
